Assay results: US7815900B1, “Use of C3-C5 monosaccharides to protect keratinous fibers” (L'Oréal S.A., priority 2000, dated 2010)

Assays:
[1] = DSC double peak area of relaxed hair after treatment; conditions: for Double Peak Area: relaxed ethnic hair, 10 min at 45° C.
Experimental: (§1) Kinky hair was relaxed using 2.5% sodium hydroxide (20 min at room temperature). The hair was thoroughly rinsed with water, and a treatment solution was applied for 10 min at 45° C. Each of the following treatment solutions were tested: a) 1% D-xylose, b) 5% D-xylose, and c) deionized water-control treatment.

[2] = Tensile strength (work to break) of relaxed hair after treatment; conditions: relaxed ethnic hair, 10 min at 45° C.
Experimental: as §1

[3] = Protein loss from hair in water; conditions: bleached hair treated 5 times (1% solutions; Xylo-Biose Syrup 1.5%), then 1 h at 45° C. in deionized water
Experimental: XyloBiose Syrup is a raw material that contains about 15 wt % of xylobiose (dimer) and about 12 wt % of xylose. Xylo-Oligo 95P is a raw material containing about 22 wt % of xylobiose. Bleached hair was rinsed and blot-dried with a paper-towel. The treatment solution was then applied to the hair for 10 min at 45° C., and the hair was blow-dried. The procedure was repeated 5 times. Each of the following solutions was tested: • 1% D-Xylose • 1% Xylo-Oligo 95P • 1.5% XyloBiose Syrup • deionized water-control treatment
Following blow drying, a hair swatch (0.5 g) was immersed in 25 mL of deionized water for 1 h at 45° C. and the water was analyzed for the protein content. Id.

[4] = Cuticle loss estimated by UV transmittance of suspension; conditions: relaxed ethnic hair, greater transmittance = less cuticle loss
Experimental: as §1
The cuticle loss was estimated as follows. The relaxed/treated hair (0.5 g) was immersed in 2.5 mL deionized water for 15 min at 45° C. The hair was removed and UV transmittance of the remaining cloudy suspension was determined. The greater the transmittance, the less material is suspended, and therefore, the less damage to the hair.

[5] = Hair chemical composition (lysine, arginine) after heat cycles; conditions: 1.0% solution
Experimental: The repairing of the damaged hair by pentoses is further supported by changes in the hair chemical composition that are observed when the hair was treated with pentose solutions, followed by heat application. Specifically, the amounts of lysine and arginine decreased, as compared to the hair treated with water (Table 19). The change in the lysine/arginine content, in conjunction with the decreased extension to break, appears to indicate that some cross-linking processes occur when the hair is heated in the presence of pentoses.

[6] = bleached/permed hair after 12 cycles at 130° C.

O=C[C@H](O)[C@@H](O)[C@H](O)CO [D-Xylose]
Double Peak Area ([1]; 1% solution): 14.10 +/− 2.52 J/g hair | Double Peak Area ([1]; 5% solution): 21.35 +/− 19.02 J/g hair | protection of relaxed hair (α-structure, tensile strength, cuticle loss) compared to water, in words ([1]; relaxed kinky hair): protected | Work to Break ([2]; 1% solution): 749 +/− 151 J/m^2 | Work to Break ([2]; 5% solution): 1,200 +/− 222 J/m^2 | Protein loss [3]: 200.9 +/− 36.5 microgram/g hair | Transmittance, at 600 nm ([4]; 1% solution): 0.9545 | Transmittance, at 600 nm ([4]; 5% solution): 0.9339 | Arginine ([5]; bleached hair after 12 cycles at 130° C.): 8.0 +/− 0.1 wt % | Arginine [5, 6]: 7.2 +/− 0.1 wt % | Lysine [5, 6]: 1.6 +/− 0.1 wt %
